“Also recorded” adds a separate entry of the source.
Key:
Male C57BL/6J mice [1] = test: sub-effective dose morphine conditioned-place preference after chronic social defeat stress; format: in vivo, mouse; settings: single 10 mg/kg i.p. before conditioning, morphine 0.25 mg/kg
Excerpt: (§1) Animals: Male C57BL/6J mice (8 weeks old, Jackson laboratories) were kept in a temperature and humidity-controlled environment and maintained in a 12:12 hr light/dark cycle (lights on at 7:00 AM). Mice were singly-housed for all the studies due to increased aggression following opioid administration and were randomly assigned to treatment groups.
(§2) Drugs: (2R,6R)-HNK hydrochloride was synthesized and characterized. Absolute and relative stereochemistry for (2R,6R)-HNK was confirmed by small molecule x-ray crystallography. For the intraperitoneal injections, drugs were dissolved in 0.9% saline and given in a volume of 5 ml/kg.
Social defeats: Socially defeated mice underwent a 10-day chronic social defeat stress paradigm. […]
Social interaction test: Following the social defeats, on day 11, test mice were screened for susceptibility in a social interaction/avoidance choice test. […] The time spent interacting (nose within close proximity of the cage) with the “stranger” mouse versus the empty cage was analyzed using TopScan video tracking software (CleverSys, Reston, Virginia). […]
Sucrose preference: Following the social interaction test, mice were assessed for sucrose preference in their home cages. […] Sucrose preference was measured (day 12) and were assigned to two groups: resilient (sucrose preference >70%) and susceptible (sucrose preference <55%). […]

Male C57BL/6J mice [2] = test: naloxone-precipitated morphine withdrawal symptoms; format: in vivo, mouse; settings: 10 mg/kg i.p. 10 min before naloxone 1 mg/kg
Excerpt: as §1, §2
Precipitated morphine withdrawal symptoms: Mice were given a single injection of saline or morphine (10 mg/kg) in their home cages for 4 days. On Day 5, 1 hr and 50 min after their last saline or morphine injection, mice were given a single injection of saline or (2R,6R)-HNK (10 mg/kg) and 10 min later were given another injection of either saline or the opioid receptor antagonist naloxone (1 mg/kg, i.p.). The mice were immediately placed in plexiglass cylinders and their behaviors were monitored and live-scored for 25 min by an experimenter blind to any treatment conditions. Behaviors that were scored included: number of jumps (escape behavior), number of paw tremors, and occurrence (1 point) or not in each 5-min interval for the following symptoms: stereotypic sniffing, stereotypic rearing, eye ptosis, piloerection, head nodding and swallowing (FIGS. 9A-9H). An average score for each animal was given after analyzing all the withdrawal symptoms (FIG. 10).

N[C@@]1(c2ccccc2Cl)CCC[C@@H](O)C1=O [(2R,6R)-HNK, (2R,6R)-hydroxynorketamine]
morphine-induced place preference (conditioning to sub-effective dose of morphine) (Male C57BL/6J mice [1]; stress susceptible mice): prevents conditioning; also recorded: prevented morphine-induced place preference | morphine-induced place preference (conditioning to sub-effective dose of morphine) (Male C57BL/6J mice [1]; stress-resilient mice): no significant effect | average precipitated withdrawal symptoms of morphine (Male C57BL/6J mice [2]): overall reduction | escape-related jumping behavior (Male C57BL/6J mice [2]): increasing the escape-related jumping behavior | paw tremors (Male C57BL/6J mice [2]): decreased paw tremors | somatic symptoms following naloxone-precipitated morphine withdrawal (Male C57BL/6J mice [2]): decreases somatic symptoms

Reference: patent publication US20230331655A1, “HYDROXYN[…] AND METHODS OF USE THEREOF” (UNIVERSITY OF MARYLAND, BALTIMORE, priority 2020, published 2023)
